Source: patent publication US9302999B2, “Substituted triazoles as herbicides” (E. I. DU PONT DE NEMOURS AND COMPANY, priority 2012, dated 2016)

Key:
Type in all cases: in vivo
[1] = system: barnyardgrass (Echinochloa crus-galli); assay: Test A pre-/postemergence: barnyardgrass; conditions: for Barnyardgrass plant response rating: Postemergence; for Plant response rating, Barnyardgrass: Preemergence
In short: (§1)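 Seeds were sown in loam/sand blend and sprayed preemergence (directed soil spray) and, simultaneously, postemergence at 2–10 cm, one- to two-leaf stage, using compounds in non-phytotoxic solvent with surfactant. After ~10 days in greenhouse, injury was rated visually versus untreated controls, 0 (no effect) to 100 (complete control).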

[2] = system: crabgrass, large (large crabgrass, Digitaria sanguinalis); assay: Test A pre-/postemergence: crabgrass, large; conditions: for Crabgrass, Large plant response rating: Postemergence; for Plant response rating, Crabgrass, Large: Preemergence
In short: as §1

[3] = system: foxtail, giant (giant foxtail, Setaria faberii); assay: Test A pre-/postemergence: foxtail, giant; conditions: for Foxtail, Giant plant response rating: Postemergence; for Plant response rating, Foxtail, Giant: Preemergence
In short: as §1

[4] = system: morningglory (Ipomoea spp.); assay: Test A pre-/postemergence: morningglory; conditions: for Morningglory plant response rating: visual rating on 0 to 100 scale (0 no effect, 100 complete control), approximately ten days
In short: as §1

[5] = system: pigweed (Amaranthus retroflexus); assay: Test A pre-/postemergence: pigweed; conditions: for Pigweed plant response rating: visual rating on 0 to 100 scale (0 no effect, 100 complete control), approximately ten days
In short: as §1

[6] = system: velvetleaf (Abutilon theophrasti); assay: Test A pre-/postemergence: velvetleaf; conditions: for Velvetleaf plant response rating: visual rating on 0 to 100 scale (0 no effect, 100 complete control), approximately ten days
In short: as §1

[7] = system: wheat (Triticum aestivum); assay: Test A pre-/postemergence: wheat; conditions: for Wheat plant response rating: visual rating on 0 to 100 scale (0 no effect, 100 complete control), approximately ten days
In short: as §1

corn (Zea mays) = assay: Test A pre-/postemergence: corn; conditions: for Corn plant response rating: Postemergence; for Plant response rating, Corn: Preemergence
In short: as §1

rice (Oryza sativa) = assay: Test B flooded paddy: rice; conditions: Flood; 250 g ai/ha; applied to paddy water at 2-leaf stage; visually evaluated after 13 to 15 days
In short: (§2)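 At two leaves, seedlings received the test compound via the paddy water, pots having been flooded 3 cm over the soil surface and kept so. Greenhouse-held for 13 to 15 days, then judged by eye against controls on a scale running 0 (no effect) to 100 (complete control).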

[8] = system: sedge, umbrella (small-flower umbrella sedge Cyperus difformis); assay: Test B flooded paddy: sedge, umbrella; conditions: Flood; 250 g ai/ha; applied to paddy water at 2-leaf stage; visually evaluated after 13 to 15 days
In short: as §2

[9] = system: ducksalad (Heteranthera limosa); assay: Test B flooded paddy: ducksalad; conditions: Flood; 250 g ai/ha; applied to paddy water at 2-leaf stage; visually evaluated after 13 to 15 days
In short: as §2

[10] = system: barnyardgrass (Echinochloa crus-galli); assay: Test B flooded paddy: barnyardgrass; conditions: Flood; 250 g ai/ha; applied to paddy water at 2-leaf stage; visually evaluated after 13 to 15 days
In short: as §2

[11] = 125 g ai/ha, 0 to 100 scale, 0 is no effect, 100 is complete control
[12] = 500 g ai/ha, visual rating on 0 to 100 scale (0 no effect, 100 complete control), approximately ten days
[13] = 125 g ai/ha, 0 to 100 scale where 0 is no effect and 100 is complete control
[14] = 500 g ai/ha, 0 to 100 scale (0 no effect, 100 complete control)
[15] = Postemergence, 125 g ai/ha, 0 to 100 scale, 0 is no effect, 100 is complete control
[16] = Preemergence, 125 g ai/ha, 0 to 100 scale where 0 is no effect and 100 is complete control
[17] = Preemergence, 500 g ai/ha, 0 to 100 scale (0 no effect, 100 complete control)

Cc1nn(-c2ccc(F)c(F)c2)nc1Cc1ccnc(C(F)F)c1 [Compound 136]
Barnyardgrass plant response rating [1, 11]: 60
Barnyardgrass plant response rating [1, 12]: 90
Plant response rating, Barnyardgrass [1, 13]: 70
Plant response rating, Barnyardgrass [1, 14]: 100
Crabgrass, Large plant response rating [2, 11]: 60
Crabgrass, Large plant response rating [2, 12]: 90
Plant response rating, Crabgrass, Large [2, 13]: 80
Plant response rating, Crabgrass, Large [2, 14]: 100
Foxtail, Giant plant response rating [3, 11]: 90
Foxtail, Giant plant response rating [3, 12]: 90
Plant response rating, Foxtail, Giant [3, 13]: 100
Plant response rating, Foxtail, Giant [3, 14]: 100
Plant response rating, Morningglory [4, 15]: 70
Morningglory plant response rating ([4]; Postemergence, 500 g ai/ha): 100
Plant response rating, Morningglory [4, 16]: 20
Plant response rating, Morningglory [4, 17]: 60
Plant response rating, Pigweed [5, 15]: 100
Pigweed plant response rating ([5]; Postemergence, 500 g ai/ha): 100
Plant response rating, Pigweed [5, 16]: 90
Plant response rating, Pigweed [5, 17]: 90
Plant response rating, Velvetleaf [6, 15]: 90
Velvetleaf plant response rating ([6]; Postemergence, 500 g ai/ha): 100
Plant response rating, Velvetleaf [6, 16]: 30
Plant response rating, Velvetleaf [6, 17]: 60
Plant response rating, Wheat [7, 15]: 30
Wheat plant response rating ([7]; Postemergence, 500 g ai/ha): 30
Plant response rating, Wheat [7, 16]: 0
Plant response rating, Wheat [7, 17]: 10
Corn plant response rating (corn (Zea mays); [11]): 20
Corn plant response rating (corn (Zea mays); [12]): 40
Plant response rating, Corn (corn (Zea mays); [13]): 0
Plant response rating, Corn (corn (Zea mays); [14]): 10
Plant response rating, Rice (0 to 100 scale, 0 is no effect, 100 is complete control) (rice (Oryza sativa)): 35
Plant response rating, Sedge, Umbrella (0 to 100 scale, 0 is no effect, 100 is complete control) [8]: 85
Plant response rating, Ducksalad (0 to 100 scale, 0 is no effect, 100 is complete control) [9]: 75
Plant response rating, Barnyardgrass (0 to 100 scale, 0 is no effect, 100 is complete control) [10]: 45

CON=C(c1cccc(C(F)(F)F)c1)c1nn(-c2ccnc(C(F)(F)F)c2)nc1C [Compound 140]
Barnyardgrass plant response rating [1, 11]: 10
Barnyardgrass plant response rating [1, 12]: 30
Plant response rating, Barnyardgrass [1, 13]: 0
Plant response rating, Barnyardgrass [1, 14]: 30
Crabgrass, Large plant response rating [2, 11]: 20
Crabgrass, Large plant response rating [2, 12]: 50
Plant response rating, Crabgrass, Large [2, 13]: 20
Plant response rating, Crabgrass, Large [2, 14]: 50
Foxtail, Giant plant response rating [3, 11]: 20
Foxtail, Giant plant response rating [3, 12]: 50
Plant response rating, Foxtail, Giant [3, 13]: 20
Plant response rating, Foxtail, Giant [3, 14]: 70
Plant response rating, Morningglory [4, 15]: 50
Morningglory plant response rating ([4]; Postemergence, 500 g ai/ha): 90
Plant response rating, Morningglory [4, 16]: 0
Plant response rating, Morningglory [4, 17]: 0
Plant response rating, Pigweed [5, 15]: 100
Pigweed plant response rating ([5]; Postemergence, 500 g ai/ha): 100
Plant response rating, Pigweed [5, 16]: 30
Plant response rating, Pigweed [5, 17]: 80
Plant response rating, Velvetleaf [6, 15]: 20
Velvetleaf plant response rating ([6]; Postemergence, 500 g ai/ha): 70
Plant response rating, Velvetleaf [6, 16]: 20
Plant response rating, Velvetleaf [6, 17]: 30
Plant response rating, Wheat [7, 15]: 10
Wheat plant response rating ([7]; Postemergence, 500 g ai/ha): 20
Plant response rating, Wheat [7, 16]: 0
Plant response rating, Wheat [7, 17]: 0
Corn plant response rating (corn (Zea mays); [11]): 20
Corn plant response rating (corn (Zea mays); [12]): 30
Plant response rating, Corn (corn (Zea mays); [13]): 0
Plant response rating, Corn (corn (Zea mays); [14]): 0
Plant response rating, Rice (0 to 100 scale, 0 is no effect, 100 is complete control) (rice (Oryza sativa)): 0
Plant response rating, Sedge, Umbrella (0 to 100 scale, 0 is no effect, 100 is complete control) [8]: 0
Plant response rating, Ducksalad (0 to 100 scale, 0 is no effect, 100 is complete control) [9]: 0
Plant response rating, Barnyardgrass (0 to 100 scale, 0 is no effect, 100 is complete control) [10]: 30
